Measured values reported in PubChem BioAssay AID1973 (The Scripps Research Institute Molecular Screening Center, 2009).
pIC50: −log10 of the molar value. Active and inactive are the calls of the source.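 How the source made its calls: active means IC50 dose giving half inhibition of the KLF5 reporter of 10 micromolar or lower; inactive means IC50 above 10 micromolar.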

These molecules were tested on DLD-1 KLF5 promoter-luciferase reporter, luminescence (assay: KLF5 promoter reporter inhibitors, dose response, luminescence, DLD-1 cells, luciferase reporter (AID 1973)).
COc1cccc(/C=N/Nc2nccnc2Cl)c1O gave a pIC50 of 5.68. Oc1cccc2ccc(Nc3ccccn3)nc12 gave a pIC50 of 5.61. For Cc1ccccc1OCC(=O)Nc1cccc(C(=O)O)c1, the pIC50 was 5.90. O=C(CSc1n[nH]c(-c2ccccn2)n1)Nc1ccc(Cl)cc1 gave a pIC50 of 5.36. COc1ccc(OC)c2[nH]c(C(=O)N/N=C/c3ccccc3O)cc12 showed a pIC50 of 5.78. Molecule Cc1nc2ccccn2c1-c1csc(Nc2cccc(O)c2)n1 has a pIC50 of 6.40. Work on O=C(Nc1cccc(C(=O)O)c1)Nc1ccc2c(c1)OCO2 yielded a pIC50 of 6.08. CCCS(=O)(=O)c1cnc(C2COc3ccccc3O2)nc1N (stereo unspecified) was tested, and the pIC50 was 5.85. With COc1ccc(N/N=C/c2c(C(=O)O)ccc3ccccc23)cc1 the pIC50 was 5.77. Work on COc1ccc(C(=O)Nc2nc3ccccc3s2)c(OC)c1 yielded a pIC50 of 5.63. CCOC(=O)c1sc(NC(=O)c2sc(C)nc2C)nc1C was tested, and the IC50 was > 39800 nM (inactive). CC(C)CC(NC(=O)CCCNC(=O)CCC(=O)OC1O[C@H]2OC3(C)CC[C@H]4[C@H](C)CCC(C1C)C24OO3)C(=O)O (stereo partly specified) was tested, and the pIC50 was 6.30. For Cn1cccc1-c1cc(C(=O)N/N=C/c2cc(Br)ccc2O)[nH]n1, the pIC50 was 5.82. For CCN(CC)S(=O)(=O)c1cc(OC)ccc1N=Nc1ccc(O)c2ncccc12, the pIC50 was 5.69. Molecule Cc1ccc(C(=O)Nc2nc3ccccc3[nH]2)cc1 has a pIC50 of 5.45. For O=C(c1cc(-c2ccccc2Cl)on1)N1CCCC1, the pIC50 was 5.46. In the case of COC(=O)c1ccc(Oc2cc(C)nc(-n3nc(C)cc3C)n2)cc1, the pIC50 was 6.28. C[C@@H]1O[C@@H](O[C@H]2C[C@@H](O)[C@]3(CO)[C@H]4[C@H](O)C[C@]5(C)[C@@H](C6=CC(=O)OC6)CC[C@]5(O)[C@@H]4CC[C@]3(O)C2)[C@H](O)[C@H](O)[C@H]1O was tested, and the pIC50 was 6.78. For CCOC(=O)c1sc(NC(=O)c2cc3c(s2)CCC(C)C3)nc1C (stereo unspecified), the pIC50 was 6.96. Work on Nc1ccc(-c2nc3ccc(C(=O)O)cc3s2)cc1 yielded a pIC50 of 6.42. With Cc1ccc(C(=O)O/N=C(\N)c2ccccn2)c(C)c1 the pIC50 was 5.85. In the case of O=C(Nc1nccs1)c1cc2c(s1)CCCCC2, the pIC50 was 5.54. Work on COC(=O)C1=C(CN2CCCc3ccccc32)NC(=O)NC1c1ccc(F)cc1 (stereo unspecified) yielded a pIC50 of 5.52. c1ccc(-c2ccc(-c3nc(-c4ccccn4)no3)cc2)cc1 showed a pIC50 of 6.44. In the case of C[C@]12CCC3C(CCC4=CC(O)CC[C@@]43/C=N/O)C1(O)CCC2C1=CC(=O)OC1 (stereo partly specified), the pIC50 was 5.66. C/C(=N\NC(=O)c1n[nH]c2c1CCC2)c1cccs1 was tested, and the pIC50 was 5.61. With CC(C)(C)c1ccc(-c2noc(CCC(=O)Nc3cccnc3)n2)cc1 the pIC50 was 6.98. Work on CN(C(=O)COC(=O)/C=C/c1cccc([N+](=O)[O-])c1)C1CCS(=O)(=O)C1 (stereo unspecified) yielded a pIC50 of 6.29. Molecule O=C(N/N=C/c1cc(O)ccc1Br)c1cccnc1 has a pIC50 of 5.77. COc1ccc2[nH]c(C(=O)N/N=C/c3ccc(OC)c(O)c3)cc2c1 gave a pIC50 of 5.29. Molecule COc1ccc(-n2ncc3c(N4CCCCC4)ncnc32)cc1 has a pIC50 of 5.86. O=C(N/N=C/c1cccc(Oc2ccccc2)c1)c1ccccc1F showed a pIC50 of 5.91. With CC(C)(C)C(=O)Nc1cc2nn(-c3ccccc3)nc2cc1Cl the pIC50 was 7.01. With COc1ccccc1N1CCN(Cc2cc(Br)c(O)c3ncccc23)CC1 the pIC50 was 5.57. In the case of CN(C)c1ccc(Nc2nc(N)c3ccccc3n2)cc1, the pIC50 was 5.60. CC(C)(C)c1ccc(C(=O)Nc2sc3c(c2C(=O)O)CCC3)cc1 gave a pIC50 of 5.94. CC1CCN(Cc2c(C(=O)N/N=C/c3ccccc3O)nnn2-c2nonc2N)CC1 gave a pIC50 of 5.74. With O=C(O)CSCC(=O)Nc1ccc(C2CCCCC2)cc1 the pIC50 was 5.89. For Cc1ccc(C(=O)O/N=C(\N)c2ccccn2)c(Cl)c1, the pIC50 was 5.55. Molecule COc1cccc(/C=N/Nc2ccc(C(=O)O)cc2)c1O has a pIC50 of 7.37. In the case of COc1ccc(OC)c(N/C=C/C(=O)c2ccccc2)c1, the pIC50 was 5.77. For Oc1cccc(/C=N/Nc2ccc(Cl)nn2)c1O, the pIC50 was 5.72. For CC1CCN(c2ccc(-c3cccs3)nn2)CC1, the pIC50 was 5.90. Cc1cc(C(=O)CN2C(=O)c3ccccc3S2(=O)=O)c(C)n1CC1CCCO1 (stereo unspecified) was tested, and the pIC50 was 6.57. CCN1C=CC(=C2C(=O)c3ccccc3C2=O)C=C1 gave a pIC50 of 6.02. For O=C(Nc1cccc(O)c1)c1cc(-c2ccc3c(c2)OCO3)on1, the pIC50 was 5.69. For CN(CCO)c1ccc(/C=N/Nc2nncc3ccccc23)cc1, the pIC50 was 5.87. Molecule CNC1=C(N(C(C)=O)c2ccc(Br)cc2)C(=O)c2ccccc2C1=O has a pIC50 of 5.73. In the case of CCc1ccn2cc(-c3cc(-c4ccccc4)no3)nc2c1, the pIC50 was 6.18. O=C(NCCc1ccccc1)c1ccc2c(c1)OCCO2 gave a pIC50 of 5.97. Molecule O=C(CN1C(=O)c2ccccc2S1(=O)=O)c1ccc(Cl)cc1Cl has a pIC50 of 5.77. Molecule CC(C)(C)c1ccc(-c2noc(CCC(=O)NCC3CCCO3)n2)cc1 (stereo unspecified) has a pIC50 of 5.74. In the case of Cc1cc(/C=N/Nc2nc(N)ncc2[N+](=O)[O-])c(C)n1-c1ccccc1F, the pIC50 was 6.40. O=C(NCCc1ccccc1F)c1ccc2c(c1)OCCO2 showed a pIC50 of 6.37. With O=C(O)c1cccc(COc2ccc3c(c2)CCC3)c1 the pIC50 was 6.16. In the case of Cc1ccc(C(=O)Nc2cnc3ccccc3c2)cc1, the pIC50 was 6.13. Molecule Cc1cc(-c2ccccc2)n(-c2cc(N/N=C/c3ccccc3O)ncn2)n1 has a pIC50 of 6.00. In the case of COC(=O)c1ccc2nc(Nc3nc4ccc(F)cc4s3)sc2c1, the pIC50 was 8.16. In the case of CCOc1cc(Br)cc(/C=N/NC(=O)c2cccnc2)c1O, the pIC50 was 5.78. With COC(=O)c1c(N)sc(C(=O)NCCc2ccccc2)c1C the pIC50 was 5.71. Molecule O=C(O)c1ccc(N/N=C/c2c[nH]c3ccccc23)cc1 has a pIC50 of 5.82. Oc1ccc(N=Nc2ccccc2C(F)(F)F)c2cccnc12 was tested, and the pIC50 was 5.72. Work on COc1ccc(OCc2cccc(C(=O)Nn3cc([N+](=O)[O-])cn3)c2)cc1 yielded a pIC50 of 6.48. For Cc1ccc2nc(NC(=O)CCCc3nc4ccccc4s3)sc2c1, the pIC50 was 6.68. Molecule CCCc1ccc(-c2ccc(/C=C/C(=O)O)cc2)nc1 has a pIC50 of 6.38. Molecule CCc1ccn2cc(-c3ccc4c(c3)OCO4)nc2c1 has a pIC50 of 5.72. CCOc1cccc(/C=N/NC(=O)c2ccc3c(c2)OCCO3)c1O showed a pIC50 of 5.78. Work on Cc1ccc(S(=O)(=O)Nc2cc(Cl)c(O)c3ncccc23)cc1 yielded a pIC50 of 5.74. In the case of C#Cc1ccc([C@@H]2C=C(C(=O)N3CCN(Cc4ccccc4)CC3)O[C@H](OCCCCO)C2)cc1, the pIC50 was 5.57. CN(C)c1ccc(/C=C/c2nc3ccccc3c(=O)[nH]2)cc1 showed a pIC50 of 5.82. N/C(=N\OCc1ccc([N+](=O)[O-])cc1)c1ccccn1 gave a pIC50 of 5.98. For C[C@@H]1O[C@@H](O[C@H]2C[C@@H](O)[C@]3(CO)[C@H]4[C@H](O)C[C@]5(C)[C@@H](C6COC(=O)C6)CC[C@]5(O)[C@@H]4CC[C@]3(O)C2)[C@H](O)[C@H](O)[C@H]1O (stereo partly specified), the pIC50 was 5.41. Work on CCc1ccc(NC(=O)c2cnn3ccccc23)cc1 yielded a pIC50 of 5.73. O=C(N/N=C/c1c(O)ccc2ccccc12)c1ccc(Br)o1 showed a pIC50 of 5.75. O=C(N/N=C/c1cc(Br)ccc1OC(=O)c1ccc(Br)cc1)c1ccncc1 gave a pIC50 of 5.81. With Clc1ccccc1/C=C/c1nc(-c2ccccn2)no1 the pIC50 was 5.81. Work on O=C(NCCc1ccccc1)c1ccc2c(c1)OCCCO2 yielded a pIC50 of 6.38. CCCCN=C[C@]12CCC(O)CC1(O)CCC1[C@@H]2CC[C@]2(C)[C@H](C3C=CC(=O)O3)CCC12O (stereo partly specified) was tested, and the pIC50 was 5.69. Molecule COc1cc(N=Cc2c(O)[nH]c3ccccc23)cc(OC)c1OC has a pIC50 of 5.99. Work on CCCc1ccc(C(=O)O/N=C(\N)c2ccccn2)cc1 yielded a pIC50 of 6.97. With O=C1C(Nc2ccccc2)=C(N2CCCCC2)C(=O)c2ccccc21 the IC50 was 13400 nM (inactive). Work on NS(=O)(=O)c1ccc(N=Nc2ccc(O)c3ncccc23)cc1 yielded a pIC50 of 5.50. For CC(C)(C)c1ccc(-c2noc(CCC(N)=O)n2)cc1, the pIC50 was 6.87. Molecule CC(C)(C)c1ccc(C(=O)O/N=C(\N)c2ccccc2)cc1 has a pIC50 of 5.76. COc1ccc(OC)c(Nc2cc(C)nc3nc(C)nn23)c1 showed a pIC50 of 6.31. In the case of COc1cccc(/C=N/Nc2ncc(C(F)(F)F)cc2Cl)c1O, the pIC50 was 6.25. With CC(C)Oc1ccc(C(=O)Nc2nc3ccccc3[nH]2)cc1 the pIC50 was 5.78. O=C(Nc1cccnc1)c1cccs1 gave a pIC50 of 6.02. Molecule COC(=O)c1nn(-c2ccc3c(c2)CCN3C(C)=O)cc1O has a pIC50 of 5.69. Cc1ccc(C(=O)N/N=C/c2c(O)ccc3ccccc23)cn1 gave a pIC50 of 5.83. In the case of c1ccc(-c2noc(-c3ccc4ccccc4c3)n2)nc1, the pIC50 was 6.10. Nc1c(C(=O)Nc2cccc(C(=O)O)c2)sc2nc3c(cc12)CCCC3 was tested, and the pIC50 was 5.83. CCNC(=S)NNC(=O)c1cc(-c2ccc(OCC)cc2)nc2ccccc12 was tested, and the pIC50 was 5.38. Work on COc1cc(/C=N/O)ccc1OCc1ccc(C(=O)O)cc1 yielded a pIC50 of 6.09. Work on O=C(N/N=C/c1cc(Cl)ccc1O)c1cccnc1 yielded a pIC50 of 5.79. CC(C)(C)C(=O)Nc1ccc(NC(=O)c2ccco2)nc1 was tested, and the pIC50 was 6.02. O=C(NC1=NCCS1)C1COc2ccccc2O1 (stereo unspecified) gave a pIC50 of 5.58. Work on COc1ccc(Cl)cc1C(=O)Nc1nc2ccccc2[nH]1 yielded a pIC50 of 5.39. Cc1ccc(-c2nnc(SCC(=O)Nc3ccccc3F)o2)cc1 was tested, and the pIC50 was 5.60. For Cc1ccc(C(=O)N/N=C/c2cc(Br)ccc2O)cn1, the pIC50 was 5.72. CC(C)(C)c1ccc(C(=O)O/N=C(\N)c2ccccn2)cc1 was tested, and the pIC50 was 6.57. For CCc1ccc(C(=O)Nc2nc3ccccc3[nH]2)cc1, the pIC50 was 5.55. Work on O=C(N/N=C/c1c(O)ccc2ccccc12)c1cccnc1 yielded a pIC50 of 5.79. In the case of CN(C)c1ccc(/C=N/Nc2cccc(C(=O)O)c2)cc1, the pIC50 was 6.21. O=C(Nc1ccc(N2CCCCC2)cc1)c1ccccn1 showed a pIC50 of 6.15. In the case of Cc1cc(C(=O)COC(=O)c2ccccc2O)c(C)n1Cc1cccs1, the pIC50 was 6.25. COc1cccc(/C=N/NC(=O)c2cc3c(OC)ccc(OC)c3[nH]2)c1O gave a pIC50 of 5.61. In the case of O=C(Nc1nc2cc3c(cc2s1)OCCO3)c1ccco1, the pIC50 was 5.81. O=C(CCCc1ccccc1)c1ccc2c(c1)OCCO2 was tested, and the pIC50 was 5.91. COc1ccc2nc(SCC(=O)NC3CCCC3)c(C)cc2c1 was tested, and the pIC50 was 5.87. In the case of COc1ccc(C(=O)N/N=C/c2cc(Br)ccc2O)cc1OC, the pIC50 was 5.81. In the case of Cc1ccc2[nH]c(C(=O)N/N=C/c3ccccc3O)c(C)c2c1, the IC50 was > 39800 nM (inactive). COc1cccc(/C=N/Nc2ccc([N+](=O)[O-])cn2)c1O gave a pIC50 of 5.39. COc1cc(/C=C/[N+](=O)[O-])ccc1OCc1cccc(C(=O)O)c1 was tested, and the pIC50 was 5.68. In the case of CN1CCN(c2ccc(-c3ccc4ccccc4n3)cc2)CC1, the pIC50 was 6.78. Work on COc1ccc(/C=N/NC(=O)CCn2c3ccccc3c3ccccc32)cc1O yielded a pIC50 of 5.73.
